Results published in PMC3466269, “A Comprehensive Strategy to Discover Inhibitors of the Translesion Synthesis DNA Polymerase κ” (PLoS ONE, 2012).
Where two headings read alike, the source gives them in different places.

What was measured:
pol κ = conditions: cited from earlier work
mouse pol ι = system: mouse pol ι; parameters: method as in PMID 19223184; conditions: read-out: IC50 against pol ι; cited from earlier work
pol α = system: pol α; parameters: method as in PMID 20599777; conditions: cited from earlier work
[1] = target: T1, Human pol κ (residues 19–526) (Homo sapiens, UniProt Q9UBT6); assay: qHTS fluorescence-based DNA strand displacement assay; assay type: biochemical
T1 construct: Human pol κ (residues 19–526) was purified as previously reported; made in house
T1 sequence (Q9UBT6 19-526): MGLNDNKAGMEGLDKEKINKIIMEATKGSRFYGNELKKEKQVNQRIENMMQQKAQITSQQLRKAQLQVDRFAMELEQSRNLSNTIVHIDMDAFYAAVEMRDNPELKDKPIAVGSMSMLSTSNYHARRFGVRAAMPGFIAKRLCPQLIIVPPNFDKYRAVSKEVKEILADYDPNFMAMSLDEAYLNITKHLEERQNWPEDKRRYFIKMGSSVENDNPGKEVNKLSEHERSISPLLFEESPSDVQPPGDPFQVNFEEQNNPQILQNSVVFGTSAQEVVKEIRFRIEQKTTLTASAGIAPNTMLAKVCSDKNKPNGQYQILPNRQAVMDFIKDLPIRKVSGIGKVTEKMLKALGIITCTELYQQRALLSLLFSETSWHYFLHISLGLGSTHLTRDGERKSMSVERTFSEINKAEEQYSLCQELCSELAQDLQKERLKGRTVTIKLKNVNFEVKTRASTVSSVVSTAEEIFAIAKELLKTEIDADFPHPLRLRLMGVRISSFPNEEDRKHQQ
Experimental: The substrate used in qHTS was made by the annealing of unlabeled oligodeoxynucleotide primer (5′-TCACCCTCGTACGACTC-3′) and TAMRA-labeled reporter strand (5′-TTTTTTTTTTGC-6-TAMRA-3′) to oligodeoxynucleotide template labeled with BHQ-2 (5′-BHQ-2-[…]-3′) as originally described by Dorjsuren et al.. The annealing mixture of unlabeled primer, TAMRA-labeled reporter, and BHQ-2-labeled template in buffer containing 50 mM Tris-HCl, pH 8.0, 100 mM NaCl, and 5 mM MgCl2 was heated at 95°C for 5 min and allowed to cool gradually to room temperature. The substrate was then stored at −20°C as 50 µM stock.
qHTS was performed in 50 mM Tris-HCI, pH 8.0, 40 mM NaCl, 1 mM MgCl2, 0.01% Tween-20, 2 mM DTT, and 100 µM dTTP. 3 µL of reagents (buffer as negative control and pol κ in the remaining plate at 10 nM final concentration) were dispensed by Flying Reagent Dispenser™ (FRD) (Beckman Coulter, Inc., Fullerton, CA) into a 1,536-well plate. Compounds were delivered as 23 nL in DMSO solution via pintool transfer; vehicle-only control consisted of 23 nL DMSO. The plate was incubated for 15 min at room temperature, and then 1 µL of substrate (50 nM final concentration) was added to initiate the reaction. The plate was immediately transferred into ViewLux reader for kinetic fluorescence data collection.
To lay the foundation for the methodologies to discover and characterize inhibitors of pol κ, we used a fluorescent reporter strand displacement assay (Figure 1 and [27]). The library of bioactive small molecules was tested as seven-point dilution series, with the final concentrations ranging from 2.9 nM to 57 µM.

Human pol κ [2] = target: T2, Human pol κ (Homo sapiens, UniProt Q9UBT6); assay: Radioactive gel-based primer extension assay on non-damaged DNA, pol κ; assay type: biochemical
T2 construct: Human pol κ (residues 19–526) was purified as previously reported; made in house
T2 sequence (Q9UBT6 19-526): T1 sequence (Q9UBT6 19-526)
Experimental: (§1) The reactions with pol κ, pol η, and pol ι were carried out in the buffers containing 25 mM Tris-HCl, pH 7.5, 8 mM MgCl2, 10% glycerol, 100 µg/mL bovine serum albumin, and 5 mM DTT. Buffers for pol δ reactions contained 40 mM Hepes-KOH, pH 6.8, 10% glycerol, 200 µg/mL bovine serum albumin, 1 mM DTT, and 8 mM MgCl2. Final concentration of pol κ, pol η, pol ι, or pol δ in the reaction was 0.25 nM, 1 nM, 2.5 nM, or 4 nM, respectively. In this assay, a polymerase was preincubated with the compound for 15 min at room temperature. Primer extensions were then initiated by the addition of DNA substrate at final concentration of 5 nM and carried out for 30 min at room temperature in the presence of 100 µM dCTP and dGTP. The reactions were terminated by the addition of an equal volume of a dye solution containing 95% (v/v) formamide, 10 mM EDTA, 0.03% (w/v) xylene cyanol, and 0.03% (w/v) bromphenol blue. Reaction products were separated through a 15% acrylamide gel containing 8 M urea and visualized with a PhosphorImager screen. The ratio of extended primer to the total amount of primer was measured using ImageQuant 5.2 software to calculate the percentage of primer extended. IC50 values were determined by fitting the data to variable slope four-parameter equations using GraphPad Prism 5.

Human pol κ [3] = target: T2, Human pol κ; assay: Radioactive gel-based primer extension (TLS) past acrolein-derived ring-opened reduced form of γ-HOPdG, pol κ; assay type: biochemical
Experimental: as §1
The primary role of pol κ is to bypass DNA lesions. Therefore, it was critical to establish the assays to investigate the capability of these compounds to inhibit lesion bypass activity of pol κ. Radioactive gel-based primer extension reactions were carried out using a DNA substrate containing a site-specific acrolein-derived ring-opened reduced form of γ-HOPdG, a lesion that pol κ can efficiently bypass in vitro [13].

XP30RO cells (XP-V) = assay: Cell survival assay, crystal violet, with or without UV; conditions: crystal violet; inhibitor 6 h then UV 1.5, 4.5 or 7.5 J/m^2; candesartan cilexetil 24 µM
Experimental: Cell survival assays were carried out using crystal violet assays and CellTiter-Glo Luminescent Cell Viability Assays. In crystal violet assays, XP30RO cells were plated into clear 96-well plates at a density of 8000 cells/mL and incubated overnight at 37°C, 5% CO2. The cells were treated with (1) inhibitor alone for 6 h or (2) UV alone or (3) inhibitor alone for 6 h followed by UV irradiation. After 2 days, cells were fixed with 4% paraformaldehyde and stained with 0.5% crystal violet dye. The dye was dissolved in 10% acetic acid and absorbance measurement was taken at OD595 nm with Infinite® M200 plate reader (Tecan, Durham, NC). For the CellTiter-Glo Luminescent Cell Viability Assays, the same procedures as crystal violet assays were used except that white/clear bottom 96-well plates were used and cell viability was measured following manufacturer's recommendations.
XP30RO cells were treated with 24 µM of candesartan cilexetil alone, UV alone at 1.5 J/m^2, 4.5 J/m^2, or 7.5 J/m^2, or in combination. Percent survival was calculated by normalizing the data using the cell survival of untreated cells. The data were obtained from three independent experiments.

[4] = system: double-stranded DNA ladder; assay: DNA intercalation assay (agarose gel shift of DNA ladder); assay type: binding; conditions: 0.75 or 3 nmol compound with 1.5 nmol DNA, 1% agarose gel
Experimental: Candesartan cilexetil or ethidium bromide was incubated with 1.5 nmol of double-stranded DNA ladder for 15 min at room temperature in the buffer containing 50 mM Tris-HCl, pH 8.0, 0.01% Tween-20, 1 mM DTT, and 40 mM NaCl. The reaction mixtures were run on 1% agarose gel and stained with ethidium bromide (0.5 µg/ml) for visualization.
Figure 7 The non-DNA-intercalating property of candesartan cilexetil. Candesartan cilexetil or ethidium bromide was incubated with double-stranded DNA ladder, and the reaction products were run on 1% agarose gel and stained with ethidium bromide. Lane 1: No compound. Lane 2: 0.75 nmol of candesartan cilexetil was incubated with 1.5 nmol DNA. Lane 3: 3 nmol of candesartan cilexetil was incubated with 1.5 nmol DNA. Lane 4: 0.75 nmol of ethidium bromide was incubated with 1.5 nmol DNA. Lane 5: 3 nmol of ethidium bromide was incubated with 1.5 nmol DNA.

For `CC1(C)[C@@H](O)CC[C@]2(C)[C@H]3C(=O)C=C4[C@@H]5C[C@@](C)(C(=O)O)CC[C@]5(C)CC[C@@]4(C)[C@]3(C)CC[C@@H]12` [Glycyrrhetinic acid], the IC50 (pol κ) is listed as 15.8 µM.

For `C/C=C/c1occ(C(=O)c2c(OC)cc(OC)cc2C(=O)OC)c(=O)c1OC` [3-O-methylfunicone], the IC50 (pol κ) is listed as 12.5 µM.

For `COC1=C(C(=O)CC(C)O)C(=O)C(C)(/C=C/C=C/C(C)O)O1` (stereo not drawn) [Penicilliol B], the IC50 (mouse pol ι) is listed as 32.5 µM.

For `O=C(OC[C@H]1O[C@@H](OC(=O)c2cc(O)c(O)c(O)c2)[C@H](OC(=O)c2cc(O)c(O)c(O)c2)[C@@H](OC(=O)c2cc(O)c(O)c(O)c2)[C@@H]1OC(=O)c1cc(O)c(O)c(O)c1)c1cc(O)c(O)c(O)c1` [penta-1,2,3,4,6-O-galloyl-beta-D-glucose], the IC50 (pol κ) is given as 0.03 µM and the IC50 (pol α) is given as 0.013 µM.

`CC1=C(CC/C(C)=C/CCC2=CC[C@H](C3=CC(=O)O[C@H]3O)O[C@H]2O)C(C)(C)CCC1` [manoalide] showed an IC50 [1] of 9.5 µM, an IC50 (Human pol κ [2]) of 3.4 ± 0.9 µM and an IC50 (Human pol κ [3]) of 5.6 ± 0.9 µM. For the same compound, the “Effect on UV-induced cytotoxicity” value (XP30RO cells (XP-V)) was “failed to enhance UV toxicity”.

In the case of `CC1=CC[C@H]2C(C)(C)CCC[C@]2(C)[C@H]1CCCCCCCCCCCCCCCCC(=O)O` (relative stereo) [(1S*,4aS*,8aS*)-17-(1,4,4a,5,6,7,8,8a-octahydro-2,5,5,8a-tetramethylnaphthalen-1-yl)heptadecanoic acid], the IC50 (pol κ) is given as 7.2 µM.

`CC(C)c1ccc2c(c1)c(SC(C)(C)C)c(CC(C)(C)C(=O)O)n2Cc1ccc(Cl)cc1` [MK-886] gave an IC50 ([1]; fluorescence strand displacement, 10 nM pol κ, 50 nM substrate, 100 µM dTTP, read-out: qHTS: IC50) of 30 µM, an IC50 (Human pol κ [2]; primer extension, non-damaged DNA, 0.25 nM pol κ, average ± standard error, three experiments, read-out: gel: non-damaged: IC50) of 13 ± 1.7 µM and an IC50 (Human pol κ [3]; primer extension, adducted DNA, 0.25 nM pol κ, average ± standard error, three experiments, read-out: gel: ring-opened reduced form of γ-HOPdG: IC50) of 14 ± 0.9 µM. The “Effect on UV-induced cytotoxicity” value (XP30RO cells (XP-V)) was “failed to enhance UV toxicity”.

For `C/C=C/C(=O)C1=C(OC)OC(C)(/C=C/C=C/C(C)O)C1=O` (stereo not drawn) [Penicilliol A], the IC50 (mouse pol ι) is listed as 19.8 µM.

For C18:1-Acyl juglone, the IC50 (pol κ) is listed as 8.1 µM.

In the case of `CC[n+]1c(-c2ccccc2)c2cc(N)ccc2c2ccc(N)cc21` [ethidium bromide], the “DNA migration pattern (intercalation)” value [4] is reported as “bands shifted upwards”.

For `CCCCCCCCCCCC(=O)Oc1cccc2c1C(=O)C=CC2=O` [C12:0-Acyl juglone], the IC50 (pol κ) is listed as 6.8 µM.
